# Data as given in PubChem BioAssay (NCI).
#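 Protocol summary: plate cells (96-well), add compound at 5 concentrations, incubate 48 h, interpolate endpoints linearly. At the GI50, growth is halved. Definition used: TGI = concentration required for complete inhibition of growth.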
# Tests used:
# Test in all cases: NCI tumour cell line growth inhibition, 48 h
# [1] = tested on: SK-OV-3 ovarian
# [2] = tested on: SK-MEL-2 melanoma
# [3] = tested on: MCF7 breast
# [4] = tested on: PC-3 prostate
# [5] = tested on: A549 NSCLC
# [6] = tested on: MDA-MB-231 breast
# [7] = tested on: SF-539 CNS
# [8] = tested on: MOLT-4 leukemia
# [9] = tested on: UACC-257 melanoma
# [10] = tested on: OVCAR-8 ovarian
# [11] = tested on: MDA-MB-435
# [12] = tested on: RXF 393 renal
# [13] = tested on: OVCAR-3 ovarian
# [14] = tested on: SF-268 CNS
# [15] = tested on: COLO 205 colon
# [16] = tested on: A498 renal
# [17] = tested on: IGROV1 ovarian
# [18] = tested on: 786-0 renal
# [19] = tested on: T-47D breast
# [20] = tested on: HL-60(TB) leukemia
# [21] = tested on: SK-MEL-5 melanoma
# [22] = tested on: HCC-2998 colon
# [23] = tested on: M14 melanoma
# [24] = tested on: OVCAR-5 ovarian
# [25] = tested on: KM12 colon
# [26] = tested on: DU-145 prostate
# [27] = tested on: HT29 colon
# [28] = tested on: K-562 leukemia
# [29] = tested on: HCT-15 colon
# [30] = tested on: BT-549 breast
# [31] = tested on: SW-620 colon
# [32] = tested on: HS 578T breast
# [33] = tested on: EKVX NSCLC
# [34] = tested on: ACHN renal
# [35] = tested on: NCI-H522 lung
# [36] = tested on: MALME-3M melanoma
# [37] = tested on: OVCAR-4 ovarian
# [38] = tested on: HOP-92 NSCLC
# [39] = tested on: NCI/ADR-RES ovarian
# [40] = tested on: SNB-75 CNS
# [41] = tested on: NCI-H226 lung
# [42] = tested on: NCI-H460 lung
# [43] = tested on: HCT-116 colon
# [44] = tested on: SF-295 CNS
# [45] = tested on: SNB-19 CNS
# [46] = tested on: SK-MEL-28 melanoma
# [47] = tested on: CCRF-CEM leukemia
# [48] = tested on: RPMI-8226 leukemia
# [49] = tested on: U251 CNS
# [50] = tested on: SN12C renal
# [51] = tested on: TK-10 renal
# [52] = tested on: LOX IMVI melanoma
# [53] = tested on: NCI-H23 lung
# [54] = tested on: HOP-62 NSCLC
# [55] = tested on: CAKI-1 renal
# [56] = tested on: UACC-62 melanoma
# [57] = tested on: UO-31 renal
compound,measurement,setting,value
COc1cc2c(cc1OCCCCCN1CCN(c3cc(=O)oc4ccccc34)CC1)N=C[C@@H]1CCCN1C2=O,GI50,[1],821 nM
same,TGI,[1],> 41300 nM
same,GI50,[2],198 nM
same,TGI,[2],533 nM
same,GI50,[3],93 nM
same,TGI,[3],4950 nM
same,GI50,[4],91.8 nM
same,TGI,[4],2340 nM
same,GI50,[5],2560 nM
same,TGI,[5],11500 nM
same,GI50,[6],27.7 nM
same,TGI,[6],730 nM
same,GI50,[7],232 nM
same,TGI,[7],907 nM
same,GI50,[8],11.7 nM
same,TGI,[8],1410 nM
same,GI50,[9],1590 nM
same,TGI,[9],5690 nM
same,GI50,[10],293 nM
same,TGI,[10],19900 nM
same,GI50,[11],183 nM
same,TGI,[11],425 nM
same,GI50,[12],62.9 nM
same,TGI,[12],253 nM
same,GI50,[13],263 nM
same,TGI,[13],653 nM
same,TGI,[14],2470 nM
same,GI50,[15],42.2 nM
same,TGI,[15],280 nM
same,GI50,[16],220 nM
same,TGI,[16],488 nM
same,GI50,[17],83 nM
same,TGI,[17],401 nM
same,GI50,[18],147 nM
same,TGI,[18],468 nM
same,TGI,[19],2280 nM
same,GI50,[20],< 45.3 nM
same,TGI,[20],1120 nM
same,GI50,[21],206 nM
same,TGI,[21],481 nM
same,GI50,[22],176 nM
same,TGI,[22],398 nM
same,GI50,[23],96.5 nM
same,TGI,[23],338 nM
same,GI50,[24],407 nM
same,TGI,[24],18600 nM
same,GI50,[25],268 nM
same,TGI,[25],1380 nM
same,GI50,[26],221 nM
same,TGI,[26],3550 nM
same,GI50,[27],84.1 nM
same,TGI,[27],610 nM
same,GI50,[28],< 41.1 nM
same,TGI,[28],3060 nM
same,GI50,[29],1020 nM
same,TGI,[29],7270 nM
same,GI50,[30],158 nM
same,TGI,[30],778 nM
same,GI50,[31],242 nM
same,TGI,[31],6660 nM
same,GI50,[32],201 nM
same,TGI,[32],1840 nM
same,GI50,[33],848 nM
same,TGI,[33],4650 nM
same,GI50,[34],461 nM
same,TGI,[34],2550 nM
same,GI50,[35],< 42.8 nM
same,TGI,[35],170 nM
same,GI50,[36],219 nM
same,TGI,[36],536 nM
same,GI50,[37],358 nM
same,TGI,[37],1710 nM
same,TGI,[38],178 nM
same,GI50,[39],1910 nM
same,TGI,[39],> 22000 nM
same,TGI,[40],343 nM
same,GI50,[41],184 nM
same,TGI,[41],485 nM
same,GI50,[42],131 nM
same,TGI,[42],9990 nM
same,GI50,[43],88.9 nM
same,TGI,[43],336 nM
same,GI50,[44],331 nM
same,TGI,[44],3160 nM
same,GI50,[45],294 nM
same,TGI,[45],12500 nM
same,GI50,[46],437 nM
same,TGI,[46],1340 nM
same,GI50,[47],124 nM
same,TGI,[47],364 nM
same,GI50,[48],< 39 nM
same,TGI,[48],285 nM
same,GI50,[49],63.3 nM
same,TGI,[49],2320 nM
same,GI50,[50],182 nM
same,TGI,[50],664 nM
same,GI50,[51],175 nM
same,TGI,[51],13000 nM
same,GI50,[52],< 38.7 nM
same,TGI,[52],450 nM
same,GI50,[53],262 nM
same,TGI,[53],1100 nM
same,GI50,[54],151 nM
same,TGI,[54],438 nM
same,GI50,[55],556 nM
same,TGI,[55],1860 nM
same,GI50,[56],186 nM
same,TGI,[56],383 nM
same,GI50,[57],690 nM
same,TGI,[57],11400 nM
CCn1cc(C(=O)N/N=C/c2ccc(Br)cc2)c(=O)c2cc(F)c(N3CCNC(C)C3)c(F)c21 (stereo not drawn),GI50,[1],1930 nM
same,TGI,[1],3680 nM
same,GI50,[2],2020 nM
same,TGI,[2],4100 nM
same,GI50,[3],1560 nM
same,TGI,[3],3130 nM
same,GI50,[4],1620 nM
same,TGI,[4],3140 nM
same,GI50,[6],1840 nM
same,TGI,[6],3370 nM
same,GI50,[7],1690 nM
same,TGI,[7],3100 nM
same,GI50,[8],1680 nM
same,TGI,[8],3470 nM
same,GI50,[9],1680 nM
same,TGI,[9],3210 nM
same,GI50,[10],1740 nM
same,TGI,[10],3320 nM
same,GI50,[11],1730 nM
same,TGI,[11],3150 nM
same,GI50,[12],1630 nM
same,TGI,[12],3070 nM
same,GI50,[13],1790 nM
same,TGI,[13],3380 nM
same,GI50,[14],1780 nM
same,TGI,[14],3450 nM
same,GI50,[15],1760 nM
same,TGI,[15],3420 nM
same,GI50,[16],1780 nM
same,TGI,[16],5300 nM
same,GI50,[18],1680 nM
same,TGI,[18],3210 nM
same,GI50,[19],1650 nM
same,TGI,[19],3470 nM
same,GI50,[20],1880 nM
same,TGI,[20],3800 nM
same,GI50,[21],1940 nM
same,TGI,[21],4030 nM
same,GI50,[22],1880 nM
same,TGI,[22],3570 nM
same,GI50,[23],1910 nM
same,TGI,[23],3590 nM
same,GI50,[24],1730 nM
same,TGI,[24],3220 nM
same,GI50,[25],1860 nM
same,TGI,[25],3500 nM
same,GI50,[26],1740 nM
same,TGI,[26],3180 nM
same,GI50,[27],1680 nM
same,TGI,[27],3180 nM
same,GI50,[28],1500 nM
same,TGI,[28],3170 nM
same,GI50,[29],1440 nM
same,TGI,[29],2930 nM
same,GI50,[30],1590 nM
same,TGI,[30],3230 nM
same,GI50,[31],1710 nM
same,TGI,[31],3180 nM
same,GI50,[32],1990 nM
same,TGI,[32],5900 nM
same,GI50,[33],1590 nM
same,TGI,[33],3110 nM
same,GI50,[34],1690 nM
same,TGI,[34],3060 nM
same,GI50,[35],1850 nM
same,TGI,[35],3550 nM
same,GI50,[36],1780 nM
same,TGI,[36],3420 nM
same,GI50,[37],2480 nM
same,TGI,[37],7540 nM
same,GI50,[38],1210 nM
same,TGI,[38],2580 nM
same,GI50,[39],1950 nM
same,TGI,[39],3690 nM
same,GI50,[40],1570 nM
same,TGI,[40],2990 nM
same,GI50,[41],2150 nM
same,TGI,[41],6130 nM
same,GI50,[42],1610 nM
same,TGI,[42],3160 nM
same,GI50,[43],1540 nM
same,TGI,[43],3160 nM
same,GI50,[44],1850 nM
same,TGI,[44],3510 nM
same,GI50,[45],1700 nM
same,TGI,[45],3080 nM
same,GI50,[47],1490 nM
same,TGI,[47],3520 nM
same,GI50,[48],1850 nM
same,TGI,[48],3820 nM
same,GI50,[49],1660 nM
same,TGI,[49],3120 nM
same,GI50,[50],1570 nM
same,TGI,[50],3010 nM
same,GI50,[51],1740 nM
same,TGI,[51],3170 nM
same,GI50,[52],1750 nM
same,TGI,[52],3250 nM
same,GI50,[53],1840 nM
same,TGI,[53],3540 nM
same,GI50,[54],1720 nM
same,TGI,[54],3170 nM
same,GI50,[55],1680 nM
same,TGI,[55],3080 nM
same,GI50,[56],1880 nM
same,TGI,[56],3360 nM
same,GI50,[57],1560 nM
same,TGI,[57],2920 nM
